Data on 24 compounds can be found in ChEMBL document CHEMBL1123013, “Synthesis and neuroleptic activity of 3-(1-substituted-4-piperidinyl)-1,2-benzisoxazoles” (J Med Chem, 1985).

Where only a bound is given, the exact number is not on record here.

The species entered for one assay is Mus musculus. Description: animal or person. The following applies: ip.
Another assay has as its system Dopamine receptor. Description: Ability to inhibit the binding of [3H]spiroperidol in rat striatal tissue; ND=assay not performed due to solubility problems. The assay is classed as tissue-based, Striatum.

Description for Mus musculus: Neuroleptic activity in vivo by ability to antagonise climbing in apomorphine dosed mice after intraperitoneal administration.

Usually ED50 stands for the midpoint of the dose-response relation. A lower ED50 goes with an effect at a small dose. Turning to `COc1ccc2c(C3CCN(CCCn4c(O)nc5ccccc54)CC3)noc2c1`, the median effective dose (ED50) in the assay filed under Mus musculus was above 10 mg/kg. The compound `Fc1ccc(C(CCCN2CCC(c3noc4ccccc34)CC2)c2ccc(F)cc2)cc1` gave a 50% effective dose (ED50) in the assay listed under Mus musculus of 1.6 mg/kg. Turning to `Oc1ccc2onc(C3CCN(CCCC(c4ccc(F)cc4)c4ccc(F)cc4)CC3)c2c1`, the median effective dose (ED50) in the assay filed under Mus musculus is above 10 mg/kg. With `COc1cc2onc(C3CCN(CCCn4c(O)nc5ccccc54)CC3)c2cc1OC`, the ED50 in the assay filed under Mus musculus was above 10 mg/kg. As to `Oc1nc2ccccc2n1CCCN1CCC(c2noc3cc(F)ccc23)CC1`, in the assay listed under Mus musculus, the 50% effective dose (ED50) worked out at 0.09 mg/kg.

For `Fc1ccc(C(CCCN2CCC(c3noc4ccc(F)cc34)CC2)c2ccc(F)cc2)cc1`, the median effective dose (ED50) in the assay listed under Mus musculus is 1.6 mg/kg. Consider `COc1cc2onc(C3CCN(CCCc4c(C)[nH]c5ccccc45)CC3)c2cc1OC`, for which the ED50 in the assay listed under Mus musculus was above 10 mg/kg. Same read-out and setting: then `Cc1[nH]c2ccccc2c1CCCN1CCC(c2noc3ccc(O)cc23)CC1`, with above 10 mg/kg; and `Oc1nc2ccccc2n1CCCN1CCC(c2noc3cc(Cl)ccc23)CC1`, with 0.8 mg/kg.

In the assay filed under Mus musculus, `Cc1[nH]c2ccccc2c1CCCN1CCC(c2noc3cc(Cl)ccc23)CC1` gave a 50% effective dose (ED50) of 4.1 mg/kg. In the assay filed under Mus musculus, `Cc1[nH]c2ccccc2c1CCCN1CCC(c2noc3ccccc23)CC1` came in with a median effective dose (ED50) of 1.1 mg/kg. Compared with the last compound, the ED50 is about 3.7-fold lower. In the case of `COc1cc2onc(C3CCN(CCCc4noc5cc(F)ccc45)CC3)c2cc1OC`, in the assay listed under Mus musculus, the ED50 is above 10 mg/kg.

For the compound `Oc1nc2ccccc2n1CCCN1CCC(c2noc3cccc(F)c23)CC1`, in the assay listed under Mus musculus, it took a dose of 5.3 mg/kg to reach the 50% effect level (ED50). `Fc1ccc2c(CCCN3CCC(c4noc5ccccc45)CC3)noc2c1` displayed an ED50 in the assay listed under Mus musculus of 1.4 mg/kg. Compound `Cc1[nH]c2ccccc2c1CCCN1CCC(c2noc3ccc(F)cc23)CC1` had an ED50 in the assay filed under Mus musculus above 10 mg/kg. Consider `COc1ccc2onc(C3CCN(CCCc4c(C)[nH]c5ccccc45)CC3)c2c1`, for which the ED50 in the assay filed under Mus musculus is above 10 mg/kg.

Consider `Fc1ccc2c(CCCN3CCC(c4noc5cc(F)ccc45)CC3)noc2c1`, for which the 50% effect level in the assay listed under Mus musculus (ED50) was put at a dose of 0.08 mg/kg. As for `O=C(c1ccccc1)C1CCNCC1`, in the assay filed under Mus musculus, the 50% effect level (ED50) was put at a dose of 1.3 mg/kg.

In the assay filed under Mus musculus, `Oc1nc2ccccc2n1CCCN1CCC(c2noc3ccc(F)cc23)CC1` returned a median effective dose (ED50) above 10 mg/kg. The same measure, in the same setting: the same measure for `Fc1ccc2c(CCCN3CCC(c4noc5cc(Cl)ccc45)CC3)noc2c1`: 2 mg/kg. The same measure, in the same setting: then `COc1ccc2onc(C3CCN(CCCC(c4ccc(F)cc4)c4ccc(F)cc4)CC3)c2c1`, with above 10 mg/kg. For `Oc1nc2ccccc2n1CCCN1CCC(c2noc3ccccc23)CC1`, in the assay on Dopamine receptor, the IC50 entry is “Insoluble”. Turning to `COc1ccc2onc(C3CCN(CCCc4noc5cc(F)ccc45)CC3)c2c1`, the ED50 in the assay filed under Mus musculus was 7.2 mg/kg.

`COc1cc2onc(C3CCN(CCCC(c4ccc(F)cc4)c4ccc(F)cc4)CC3)c2cc1OC` came in with a 50% effective dose (ED50) in the assay filed under Mus musculus above 10 mg/kg.
